Data from ChEMBL document CHEMBL4190187, “Discovery of pyrazolopyrimidine derivatives as novel inhibitors of ataxia telangiectasia and rad3 related protein (ATR)” (Bioorg Med Chem Lett, 2017).

Experiments:
[1] = molecular target: PI3K p110 beta/p85 alpha (Homo sapiens) (UniProt P27986+P42338); assay: Inhibition of recombinant full-length human p110b/p85a at 1 uM using phosphatidylinositol 4,5-bisphosphate as substrate after 40 mins in presence of [gamma-33P]ATP by scintillation counting method; assay type: protein-complex assay
[2] = molecular target: Serine/threonine-protein kinase Nek11 (Homo sapiens) (UniProt Q8NG66); assay: Inhibition of recombinant full-length human NEK11 at 1 uM using myelin basic protein as substrate after 40 mins in presence of [gamma-33P]ATP by scintillation counting method
[3] = molecular target: Serine/threonine-protein kinase TBK1 (Homo sapiens) (UniProt Q9UHD2); assay: Inhibition of recombinant full-length human TBK1 at 1 uM using KRRRALS(p)VASLPGL as substrate after 40 mins in presence of [gamma-33P]ATP by scintillation counting method
[4] = molecular target: Dual specificity protein kinase TTK (Homo sapiens) (UniProt P33981); assay: Inhibition of recombinant full-length human TTK at 1 uM using myelin basic protein as substrate after 40 mins in presence of [gamma-33P]ATP by scintillation counting method
[5] = molecular target: Tyrosine-protein kinase ITK/TSK (Homo sapiens) (UniProt Q08881); assay: Inhibition of recombinant human ITK (352 to 617 residues) at 1 uM using myelin basic protein as substrate after 40 mins in presence of [gamma-33P]ATP by scintillation counting method
[6] = molecular target: Protein kinase C theta type (Homo sapiens) (UniProt Q04759); assay: Inhibition of recombinant full-length human PKCtheta at 1 uM using histone H1 as substrate after 40 mins in presence of [gamma-33P]ATP by scintillation counting method
[7] = molecular target: Serine-protein kinase ATM (Homo sapiens) (UniProt Q13315); assay: Inhibition of recombinant full-length human ATM at 1 uM using GST-cMyc-p53 as substrate after 40 mins in presence of [gamma-33P]ATP by scintillation counting method
[8] = molecular target: Serine/threonine-protein kinase WNK3 (Homo sapiens) (UniProt Q9BYP7); assay: Inhibition of recombinant human WNK3 (1 to 434 residues) at 1 uM using myelin basic protein as substrate after 40 mins in presence of [gamma-33P]ATP by scintillation counting method
[9] = molecular target: Maternal embryonic leucine zipper kinase (Homo sapiens) (UniProt Q14680); assay: Inhibition of recombinant human MELK (1 to 340 residues) at 1 uM using KKLNRTLSFAEPG as substrate after 40 mins in presence of [gamma-33P]ATP by scintillation counting method
[10] = molecular target: Wee1-like protein kinase 2 (Homo sapiens) (UniProt P0C1S8); assay: Inhibition of recombinant full-length human Wee1B at 1 uM using LSNLYHQGKFLQTFCGSPLYRRR as substrate after 120 mins in presence of [gamma-33P]ATP by scintillation counting method
[11] = molecular target: Protein kinase C alpha type (Homo sapiens) (UniProt P17252); assay: Inhibition of recombinant full-length human PKCalpha at 1 uM using histone H1 as substrate after 40 mins in presence of [gamma-33P]ATP by scintillation counting method
[12] = molecular target: Serine/threonine-protein kinase Nek9 (Homo sapiens) (UniProt Q8TD19); assay: Inhibition of recombinant human NEK9 (1 to 324 residues) at 1 uM using myelin basic protein as substrate after 40 mins in presence of [gamma-33P]ATP by scintillation counting method
[13] = system: Saccharomyces cerevisiae; assay: Inhibition of recombinant Saccharomyces cerevisiae CK1alpha (2 to 298 residues) at 1 uM using KRRRALS(p)VASLPGL as substrate after 40 mins in presence of [gamma-33P]ATP by scintillation counting method
[14] = molecular target: Dual specificity tyrosine-phosphorylation-regulated kinase 1B (Homo sapiens) (UniProt Q9Y463); assay: Inhibition of recombinant full-length human DYRK1B at 1 uM using RRRFRPASPLRGPPK as substrate after 40 mins in presence of [gamma-33P]ATP by scintillation counting method
[15] = system: Epidermal growth factor receptor (Homo sapiens), P00533 [L861Q]; assay: Inhibition of recombinant human EGFR L861Q mutant (696 to end residues) at 1 uM using poly(Glu,Tyr) 4:1 as substrate after 40 mins in presence of [gamma-33P]ATP by scintillation counting method
[16] = molecular target: Leucine-rich repeat serine/threonine-protein kinase 2 (Homo sapiens) (UniProt Q5S007); assay: Inhibition of recombinant human LRRK2 (970 to end residues) at 1 uM using RLGRDKYKTLRQIRQ as substrate after 40 mins in presence of [gamma-33P]ATP by scintillation counting method
[17] = molecular target: Serine/threonine-protein kinase 25 (Homo sapiens) (UniProt O00506); assay: Inhibition of recombinant human STK25 (1 to 308 residues) at 1 uM using RLGRDKYKTLRQIRQ as substrate after 40 mins in presence of [gamma-33P]ATP by scintillation counting method
[18] = molecular target: Serine/threonine-protein kinase Chk1 (Homo sapiens) (UniProt O14757); assay: Inhibition of recombinant full-length human CHK1 at 1 uM using KKKVSRSGLYRSPSMPENLNRPR as substrate after 40 mins in presence of [gamma-33P]ATP by scintillation counting method
[19] = system: Epidermal growth factor receptor (Homo sapiens), P00533 [L858R]; assay: Inhibition of recombinant human EGFR L858R mutant (696 to end residues) at 1 uM using poly(Glu,Tyr) 4:1 as substrate after 40 mins in presence of [gamma-33P]ATP by scintillation counting method
[20] = molecular target: Dual specificity mitogen-activated protein kinase kinase 4 (Mus musculus) (UniProt P47809); assay: Inhibition of recombinant mouse MKK4 (34 to end residues) at 1 uM using inactive JNK1a1 as substrate after 40 mins in presence of [gamma-33P]ATP by scintillation counting method
[21] = molecular target: Casein kinase I isoform gamma-3 (Homo sapiens) (UniProt Q9Y6M4); assay: Inhibition of recombinant human CK1gamma3 (1 to 330 residues) at 1 uM using KRRRALS(p)VASLPGL as substrate after 40 mins in presence of [gamma-33P]ATP by scintillation counting method
[22] = molecular target: Fibroblast growth factor receptor 1 (Homo sapiens) (UniProt P11362); assay: Inhibition of recombinant human FGFR1 (456 to 765 residues) at 1 uM using KKKSPGEYVNIEFG as substrate after 40 mins in presence of [gamma-33P]ATP by scintillation counting method
[23] = molecular target: Phosphatidylinositol 4-phosphate 3-kinase C2 domain-containing subunit alpha (Homo sapiens) (UniProt O00443); assay: Inhibition of recombinant human PI3KC2alpha (299 to end residues) at 1 uM phosphatidylinositol/phosphatidylserine as substrate after 40 mins in presence of [gamma-33P]ATP by scintillation counting method
[24] = molecular target: Serine/threonine-protein kinase PRP4 homolog (Homo sapiens) (UniProt Q13523); assay: Inhibition of recombinant human PRP4 (663 to end residues) at 1 uM using casein as substrate after 120 mins in presence of [gamma-33P]ATP by scintillation counting method

Phosphatidylinositol 4-phosphate 3-kinase C2 domain-containing subunit alpha (Homo sapiens), sequence (O00443 whole entry, the tested form may be a part): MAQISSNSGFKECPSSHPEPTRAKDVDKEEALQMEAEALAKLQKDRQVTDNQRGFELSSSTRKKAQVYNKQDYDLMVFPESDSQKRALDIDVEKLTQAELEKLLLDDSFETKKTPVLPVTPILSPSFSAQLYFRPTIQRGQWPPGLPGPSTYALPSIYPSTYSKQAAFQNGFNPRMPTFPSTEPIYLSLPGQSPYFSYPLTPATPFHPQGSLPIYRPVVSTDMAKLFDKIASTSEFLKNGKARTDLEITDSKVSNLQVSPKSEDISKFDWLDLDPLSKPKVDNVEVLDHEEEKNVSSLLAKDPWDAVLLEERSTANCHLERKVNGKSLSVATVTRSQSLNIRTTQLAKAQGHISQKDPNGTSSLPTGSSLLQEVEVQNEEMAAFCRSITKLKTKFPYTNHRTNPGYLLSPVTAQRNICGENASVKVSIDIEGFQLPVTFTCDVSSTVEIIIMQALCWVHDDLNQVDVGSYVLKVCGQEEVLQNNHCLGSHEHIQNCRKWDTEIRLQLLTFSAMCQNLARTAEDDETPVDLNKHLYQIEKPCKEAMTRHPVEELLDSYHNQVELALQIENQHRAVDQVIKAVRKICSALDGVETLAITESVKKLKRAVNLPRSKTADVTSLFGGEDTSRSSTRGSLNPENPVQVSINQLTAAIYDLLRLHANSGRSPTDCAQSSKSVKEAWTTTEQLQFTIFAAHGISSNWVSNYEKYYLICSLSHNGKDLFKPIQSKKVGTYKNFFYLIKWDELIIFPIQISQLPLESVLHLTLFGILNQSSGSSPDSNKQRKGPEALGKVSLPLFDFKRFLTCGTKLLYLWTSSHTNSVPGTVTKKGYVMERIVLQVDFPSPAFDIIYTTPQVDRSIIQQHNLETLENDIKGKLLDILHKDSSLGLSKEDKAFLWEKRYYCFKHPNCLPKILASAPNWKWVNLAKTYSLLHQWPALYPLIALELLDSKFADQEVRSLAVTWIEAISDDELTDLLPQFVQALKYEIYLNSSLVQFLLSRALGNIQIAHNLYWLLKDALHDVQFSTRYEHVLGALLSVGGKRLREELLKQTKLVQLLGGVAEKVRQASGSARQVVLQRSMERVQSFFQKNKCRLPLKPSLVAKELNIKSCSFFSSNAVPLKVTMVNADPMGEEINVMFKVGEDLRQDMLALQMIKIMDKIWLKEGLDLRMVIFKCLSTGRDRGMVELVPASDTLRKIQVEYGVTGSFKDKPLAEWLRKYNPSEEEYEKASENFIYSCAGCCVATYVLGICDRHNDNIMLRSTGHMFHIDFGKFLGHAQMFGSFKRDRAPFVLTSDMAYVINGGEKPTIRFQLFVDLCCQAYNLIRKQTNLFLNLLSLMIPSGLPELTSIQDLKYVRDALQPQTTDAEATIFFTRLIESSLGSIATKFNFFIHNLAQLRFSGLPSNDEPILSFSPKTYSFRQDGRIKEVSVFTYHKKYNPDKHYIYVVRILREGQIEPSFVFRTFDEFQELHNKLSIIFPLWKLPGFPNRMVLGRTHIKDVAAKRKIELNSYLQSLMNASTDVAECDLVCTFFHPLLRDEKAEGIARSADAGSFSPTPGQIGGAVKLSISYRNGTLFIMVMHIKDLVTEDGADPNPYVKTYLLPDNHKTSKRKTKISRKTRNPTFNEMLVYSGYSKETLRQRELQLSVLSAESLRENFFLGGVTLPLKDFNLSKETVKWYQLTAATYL
Dual specificity protein kinase TTK (Homo sapiens), sequence (P33981 whole entry, the tested form may be a part): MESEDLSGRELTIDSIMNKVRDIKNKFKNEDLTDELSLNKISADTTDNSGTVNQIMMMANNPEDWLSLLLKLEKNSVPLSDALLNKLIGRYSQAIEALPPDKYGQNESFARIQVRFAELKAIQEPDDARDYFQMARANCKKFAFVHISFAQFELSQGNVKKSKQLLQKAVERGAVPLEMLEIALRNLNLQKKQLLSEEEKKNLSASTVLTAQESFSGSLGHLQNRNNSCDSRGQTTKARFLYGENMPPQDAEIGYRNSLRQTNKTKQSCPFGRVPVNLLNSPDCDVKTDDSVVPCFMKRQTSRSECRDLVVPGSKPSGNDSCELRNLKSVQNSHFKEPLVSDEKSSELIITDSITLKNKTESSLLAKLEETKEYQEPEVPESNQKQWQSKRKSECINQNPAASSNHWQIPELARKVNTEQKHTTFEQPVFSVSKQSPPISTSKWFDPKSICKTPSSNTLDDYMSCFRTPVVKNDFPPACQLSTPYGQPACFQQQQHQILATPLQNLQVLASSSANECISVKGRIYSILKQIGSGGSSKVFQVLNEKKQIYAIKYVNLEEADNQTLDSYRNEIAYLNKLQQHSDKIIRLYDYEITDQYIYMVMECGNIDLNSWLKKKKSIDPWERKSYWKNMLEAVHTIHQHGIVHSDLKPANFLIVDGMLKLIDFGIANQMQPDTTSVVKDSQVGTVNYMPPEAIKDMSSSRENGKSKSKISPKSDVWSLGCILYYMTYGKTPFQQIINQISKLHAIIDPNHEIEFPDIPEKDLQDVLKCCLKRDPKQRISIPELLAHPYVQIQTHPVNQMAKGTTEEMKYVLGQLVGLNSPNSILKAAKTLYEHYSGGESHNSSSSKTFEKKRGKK
Casein kinase I isoform gamma-3 (Homo sapiens), sequence (Q9Y6M4 whole entry, looked up, the tested form may be a part, canonical isoform): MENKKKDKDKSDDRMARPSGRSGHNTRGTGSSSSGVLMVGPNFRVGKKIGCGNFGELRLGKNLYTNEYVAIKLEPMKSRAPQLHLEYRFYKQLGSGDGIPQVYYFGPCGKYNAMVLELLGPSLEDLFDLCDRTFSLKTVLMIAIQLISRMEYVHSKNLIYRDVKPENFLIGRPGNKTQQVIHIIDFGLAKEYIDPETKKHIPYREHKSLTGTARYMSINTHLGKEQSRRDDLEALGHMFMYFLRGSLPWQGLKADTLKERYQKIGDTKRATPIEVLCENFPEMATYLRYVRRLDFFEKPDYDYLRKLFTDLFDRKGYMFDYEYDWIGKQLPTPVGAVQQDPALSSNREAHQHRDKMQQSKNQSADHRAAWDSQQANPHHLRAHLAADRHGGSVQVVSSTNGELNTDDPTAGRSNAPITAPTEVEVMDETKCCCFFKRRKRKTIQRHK
Epidermal growth factor receptor (Homo sapiens), P00533 [L861Q], sequence (P00533 whole entry L861Q): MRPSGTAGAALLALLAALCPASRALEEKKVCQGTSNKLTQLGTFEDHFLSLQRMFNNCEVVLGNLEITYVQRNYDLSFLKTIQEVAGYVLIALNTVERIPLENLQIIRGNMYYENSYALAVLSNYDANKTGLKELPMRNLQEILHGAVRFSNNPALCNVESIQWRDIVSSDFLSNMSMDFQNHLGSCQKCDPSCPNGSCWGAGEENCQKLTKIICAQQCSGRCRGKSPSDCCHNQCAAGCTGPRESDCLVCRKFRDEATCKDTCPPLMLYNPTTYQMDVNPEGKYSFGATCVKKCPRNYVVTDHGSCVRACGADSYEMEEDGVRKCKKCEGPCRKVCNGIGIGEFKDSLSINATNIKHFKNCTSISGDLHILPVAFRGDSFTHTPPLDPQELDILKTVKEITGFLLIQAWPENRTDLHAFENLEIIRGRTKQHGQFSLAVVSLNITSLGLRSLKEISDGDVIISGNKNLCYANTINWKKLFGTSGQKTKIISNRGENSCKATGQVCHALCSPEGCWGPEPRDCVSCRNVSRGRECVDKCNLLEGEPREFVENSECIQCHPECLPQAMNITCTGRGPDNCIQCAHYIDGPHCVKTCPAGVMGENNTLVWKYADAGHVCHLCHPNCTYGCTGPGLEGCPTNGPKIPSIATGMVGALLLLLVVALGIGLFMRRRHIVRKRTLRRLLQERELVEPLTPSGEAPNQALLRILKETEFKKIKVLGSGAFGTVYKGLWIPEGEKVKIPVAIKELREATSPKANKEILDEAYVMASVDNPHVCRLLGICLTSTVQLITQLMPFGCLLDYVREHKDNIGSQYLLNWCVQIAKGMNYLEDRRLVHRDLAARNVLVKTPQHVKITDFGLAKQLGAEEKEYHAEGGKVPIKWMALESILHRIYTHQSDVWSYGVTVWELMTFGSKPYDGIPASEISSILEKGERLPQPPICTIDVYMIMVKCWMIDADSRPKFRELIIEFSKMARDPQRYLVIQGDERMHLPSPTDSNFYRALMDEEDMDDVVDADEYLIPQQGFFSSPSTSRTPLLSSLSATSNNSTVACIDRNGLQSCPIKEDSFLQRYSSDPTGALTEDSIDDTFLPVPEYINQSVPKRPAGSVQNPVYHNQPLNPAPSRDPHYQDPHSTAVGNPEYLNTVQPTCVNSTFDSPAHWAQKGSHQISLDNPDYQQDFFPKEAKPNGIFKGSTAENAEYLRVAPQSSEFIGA
Wee1-like protein kinase 2 (Homo sapiens), sequence (P0C1S8 whole entry, looked up): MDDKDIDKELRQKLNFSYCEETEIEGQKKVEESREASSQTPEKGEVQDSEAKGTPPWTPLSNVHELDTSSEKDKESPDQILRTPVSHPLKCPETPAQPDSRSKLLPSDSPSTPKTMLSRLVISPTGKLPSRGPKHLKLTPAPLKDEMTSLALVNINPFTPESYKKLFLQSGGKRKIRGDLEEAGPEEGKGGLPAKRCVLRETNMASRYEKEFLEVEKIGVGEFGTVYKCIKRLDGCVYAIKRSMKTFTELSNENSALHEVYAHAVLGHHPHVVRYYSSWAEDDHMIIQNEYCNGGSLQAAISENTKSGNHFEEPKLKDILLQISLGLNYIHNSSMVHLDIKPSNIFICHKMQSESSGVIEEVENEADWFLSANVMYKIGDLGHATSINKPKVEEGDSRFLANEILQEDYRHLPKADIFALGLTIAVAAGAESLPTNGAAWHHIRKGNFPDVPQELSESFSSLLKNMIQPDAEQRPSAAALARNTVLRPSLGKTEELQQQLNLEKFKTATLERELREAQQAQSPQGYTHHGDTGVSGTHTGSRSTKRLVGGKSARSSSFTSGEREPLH

## CS(=O)(=O)c1ccc(-n2nc(-c3cnc4[nH]ccc4c3)c3c(N)ncnc32)cc1
[1]
  inhibition: 0%
[2]
  inhibition: 19%
[3]
  inhibition: -4%
[4]
  inhibition: -6%
[5]
  inhibition: -9%
[6]
  inhibition: 5%
[7]
  inhibition: 28%
[8]
  inhibition: 43%
[9]
  inhibition: 28%
[10]
  inhibition: -3%
[11]
  inhibition: -1%
[12]
  inhibition: 11%
[13]
  inhibition: 38%
[14]
  inhibition: -4%
[15]
  inhibition: 31%
[16]
  inhibition: 22%
[17]
  inhibition: 45%
[18]
  inhibition: 2%
[19]
  inhibition: 5%
[20]
  inhibition: 10%
[21]
  inhibition: 9%
[22]
  inhibition: 63%
[23]
  inhibition: 23%
[24]
  inhibition: 4%
